# Laboratory results published in BindingDB's records for doi:10.1021/acschembio.6b00250 (Chinese Academy of Sciences, 2016).
# Columns and labels:
# Experiment in all cases: Invitrogen SelectScreen Enzymatic Assay
# [1] = molecular target: Phosphatidylinositol 4-phosphate 3-kinase C2 domain-containing subunit alpha (Homo sapiens, UniProt O00443)
# Protocol: (§1) The enzymatic assay was performed using the LifeTechnology SelectScreen.
# [2] = molecular target: Serine/threonine-protein kinase 16 (Homo sapiens, UniProt O75716)
# Protocol: as §1
# [3] = molecular target: Phosphatidylinositol 3-kinase regulatory subunit alpha/4,5-bisphosphate 3-kinase catalytic subunit delta isoform (Homo sapiens, UniProt O00329)
# Protocol: as §1
# [4] = molecular target: Phosphatidylinositol 3-kinase regulatory subunit alpha/4,5-bisphosphate 3-kinase catalytic subunit alpha isoform (Homo sapiens, UniProt P42336)
# Protocol: as §1
# [5] = molecular target: Phosphatidylinositol 4-kinase beta (Homo sapiens, UniProt Q9UBF8)
# Protocol: as §1
# [6] = molecular target: Phosphatidylinositol 4-kinase alpha (Homo sapiens, UniProt P42356)
# Protocol: as §1
# [7] = molecular target: Phosphatidylinositol 4,5-bisphosphate 3-kinase catalytic subunit gamma isoform (Homo sapiens, UniProt P48736)
# Protocol: as §1
# [8] = molecular target: Phosphatidylinositol 3-kinase catalytic subunit type 3 (Homo sapiens, UniProt Q8NEB9)
# Protocol: as §1
# [9] = molecular target: Phosphatidylinositol 4-phosphate 3-kinase C2 domain-containing subunit beta (Homo sapiens, UniProt O00750)
# Protocol: as §1
# Sequence of Phosphatidylinositol 3-kinase regulatory subunit alpha/4,5-bisphosphate 3-kinase catalytic subunit alpha isoform (P27986 whole entry, canonical isoform): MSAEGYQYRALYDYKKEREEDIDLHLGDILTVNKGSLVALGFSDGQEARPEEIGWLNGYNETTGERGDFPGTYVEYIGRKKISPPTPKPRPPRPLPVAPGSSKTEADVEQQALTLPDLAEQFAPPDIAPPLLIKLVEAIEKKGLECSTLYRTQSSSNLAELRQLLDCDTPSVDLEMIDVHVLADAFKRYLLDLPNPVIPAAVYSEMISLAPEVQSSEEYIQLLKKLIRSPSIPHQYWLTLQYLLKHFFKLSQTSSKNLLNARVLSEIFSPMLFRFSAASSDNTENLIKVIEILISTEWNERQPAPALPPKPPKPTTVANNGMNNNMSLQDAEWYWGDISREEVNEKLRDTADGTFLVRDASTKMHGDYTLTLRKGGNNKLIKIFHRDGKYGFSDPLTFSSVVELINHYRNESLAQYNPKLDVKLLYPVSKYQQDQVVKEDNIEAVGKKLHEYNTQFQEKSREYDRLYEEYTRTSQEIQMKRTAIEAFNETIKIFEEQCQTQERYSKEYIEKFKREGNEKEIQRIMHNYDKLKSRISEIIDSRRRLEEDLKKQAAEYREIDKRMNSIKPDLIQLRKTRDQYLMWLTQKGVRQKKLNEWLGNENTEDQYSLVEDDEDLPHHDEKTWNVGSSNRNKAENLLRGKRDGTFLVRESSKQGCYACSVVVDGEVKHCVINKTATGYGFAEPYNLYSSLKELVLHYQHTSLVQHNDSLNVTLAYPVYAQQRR
# Sequence of Phosphatidylinositol 3-kinase regulatory subunit alpha/4,5-bisphosphate 3-kinase catalytic subunit alpha isoform (P42336 whole entry, canonical isoform): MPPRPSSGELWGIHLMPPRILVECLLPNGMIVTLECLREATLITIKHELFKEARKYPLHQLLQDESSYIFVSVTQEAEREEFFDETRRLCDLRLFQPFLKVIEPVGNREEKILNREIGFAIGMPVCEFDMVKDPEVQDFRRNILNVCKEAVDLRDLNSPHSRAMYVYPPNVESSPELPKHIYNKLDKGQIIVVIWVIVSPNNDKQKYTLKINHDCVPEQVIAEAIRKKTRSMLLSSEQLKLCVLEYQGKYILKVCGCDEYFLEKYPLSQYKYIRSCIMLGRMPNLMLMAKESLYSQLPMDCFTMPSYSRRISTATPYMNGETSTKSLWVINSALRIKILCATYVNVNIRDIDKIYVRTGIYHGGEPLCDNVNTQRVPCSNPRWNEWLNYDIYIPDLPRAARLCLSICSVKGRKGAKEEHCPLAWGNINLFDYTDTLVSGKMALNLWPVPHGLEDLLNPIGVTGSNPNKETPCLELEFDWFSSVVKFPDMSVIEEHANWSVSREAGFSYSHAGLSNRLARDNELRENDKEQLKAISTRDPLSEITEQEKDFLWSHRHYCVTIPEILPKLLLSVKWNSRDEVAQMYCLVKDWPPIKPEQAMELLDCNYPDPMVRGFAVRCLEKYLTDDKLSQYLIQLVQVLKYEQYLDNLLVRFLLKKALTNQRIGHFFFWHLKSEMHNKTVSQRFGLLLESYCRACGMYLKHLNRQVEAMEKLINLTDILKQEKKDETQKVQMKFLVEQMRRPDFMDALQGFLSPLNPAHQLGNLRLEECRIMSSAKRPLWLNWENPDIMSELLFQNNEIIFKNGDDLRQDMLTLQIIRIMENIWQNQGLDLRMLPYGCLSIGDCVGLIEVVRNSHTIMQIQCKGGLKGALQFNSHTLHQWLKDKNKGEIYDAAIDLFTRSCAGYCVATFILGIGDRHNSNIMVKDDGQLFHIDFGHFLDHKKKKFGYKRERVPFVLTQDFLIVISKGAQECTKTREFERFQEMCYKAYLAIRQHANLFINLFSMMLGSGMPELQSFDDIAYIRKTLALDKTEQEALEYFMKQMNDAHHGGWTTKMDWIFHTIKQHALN
# Sequence of Phosphatidylinositol 3-kinase regulatory subunit alpha/4,5-bisphosphate 3-kinase catalytic subunit delta isoform (P27986 whole entry, canonical isoform): as the sequence (P27986 whole entry, canonical isoform) above
# Sequence of Phosphatidylinositol 3-kinase regulatory subunit alpha/4,5-bisphosphate 3-kinase catalytic subunit delta isoform (O00329 whole entry, canonical isoform): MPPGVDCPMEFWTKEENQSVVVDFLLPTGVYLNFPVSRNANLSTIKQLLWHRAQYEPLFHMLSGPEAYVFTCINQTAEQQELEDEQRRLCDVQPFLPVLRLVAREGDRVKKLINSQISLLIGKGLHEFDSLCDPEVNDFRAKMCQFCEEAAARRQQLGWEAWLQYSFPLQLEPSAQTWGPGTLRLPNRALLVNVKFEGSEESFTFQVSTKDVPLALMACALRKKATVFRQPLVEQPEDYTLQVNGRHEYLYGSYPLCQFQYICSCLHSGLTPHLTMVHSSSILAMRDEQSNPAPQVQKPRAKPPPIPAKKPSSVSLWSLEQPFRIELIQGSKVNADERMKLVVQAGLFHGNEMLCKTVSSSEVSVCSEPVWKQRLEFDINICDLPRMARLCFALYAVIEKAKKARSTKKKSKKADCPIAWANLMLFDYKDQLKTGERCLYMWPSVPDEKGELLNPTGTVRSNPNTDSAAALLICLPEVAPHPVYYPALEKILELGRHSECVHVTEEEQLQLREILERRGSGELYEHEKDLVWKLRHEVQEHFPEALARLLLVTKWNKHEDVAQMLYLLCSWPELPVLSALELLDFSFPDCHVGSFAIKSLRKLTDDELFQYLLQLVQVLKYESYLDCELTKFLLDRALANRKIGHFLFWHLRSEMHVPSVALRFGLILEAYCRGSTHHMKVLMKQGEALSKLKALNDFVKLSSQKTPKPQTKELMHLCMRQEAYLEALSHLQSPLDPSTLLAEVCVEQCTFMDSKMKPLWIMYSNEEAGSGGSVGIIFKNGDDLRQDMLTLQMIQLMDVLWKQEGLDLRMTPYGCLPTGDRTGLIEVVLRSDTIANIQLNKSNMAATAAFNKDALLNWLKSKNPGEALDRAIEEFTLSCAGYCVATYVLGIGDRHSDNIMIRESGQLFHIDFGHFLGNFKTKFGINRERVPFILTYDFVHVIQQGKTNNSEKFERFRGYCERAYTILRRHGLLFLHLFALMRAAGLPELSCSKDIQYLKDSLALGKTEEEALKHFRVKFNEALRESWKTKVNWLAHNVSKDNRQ
# Sequence of Serine/threonine-protein kinase 16 (O75716 whole entry): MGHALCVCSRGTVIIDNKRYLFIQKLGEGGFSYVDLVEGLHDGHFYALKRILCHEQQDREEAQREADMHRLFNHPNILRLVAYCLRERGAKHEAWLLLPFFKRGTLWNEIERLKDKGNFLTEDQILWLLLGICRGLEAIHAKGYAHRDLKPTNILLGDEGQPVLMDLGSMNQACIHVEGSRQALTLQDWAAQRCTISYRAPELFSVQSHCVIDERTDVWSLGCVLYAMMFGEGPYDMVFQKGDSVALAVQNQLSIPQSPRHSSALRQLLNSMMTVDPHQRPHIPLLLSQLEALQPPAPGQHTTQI
# Sequence of Phosphatidylinositol 4-phosphate 3-kinase C2 domain-containing subunit alpha (O00443 whole entry, the tested form may be a part): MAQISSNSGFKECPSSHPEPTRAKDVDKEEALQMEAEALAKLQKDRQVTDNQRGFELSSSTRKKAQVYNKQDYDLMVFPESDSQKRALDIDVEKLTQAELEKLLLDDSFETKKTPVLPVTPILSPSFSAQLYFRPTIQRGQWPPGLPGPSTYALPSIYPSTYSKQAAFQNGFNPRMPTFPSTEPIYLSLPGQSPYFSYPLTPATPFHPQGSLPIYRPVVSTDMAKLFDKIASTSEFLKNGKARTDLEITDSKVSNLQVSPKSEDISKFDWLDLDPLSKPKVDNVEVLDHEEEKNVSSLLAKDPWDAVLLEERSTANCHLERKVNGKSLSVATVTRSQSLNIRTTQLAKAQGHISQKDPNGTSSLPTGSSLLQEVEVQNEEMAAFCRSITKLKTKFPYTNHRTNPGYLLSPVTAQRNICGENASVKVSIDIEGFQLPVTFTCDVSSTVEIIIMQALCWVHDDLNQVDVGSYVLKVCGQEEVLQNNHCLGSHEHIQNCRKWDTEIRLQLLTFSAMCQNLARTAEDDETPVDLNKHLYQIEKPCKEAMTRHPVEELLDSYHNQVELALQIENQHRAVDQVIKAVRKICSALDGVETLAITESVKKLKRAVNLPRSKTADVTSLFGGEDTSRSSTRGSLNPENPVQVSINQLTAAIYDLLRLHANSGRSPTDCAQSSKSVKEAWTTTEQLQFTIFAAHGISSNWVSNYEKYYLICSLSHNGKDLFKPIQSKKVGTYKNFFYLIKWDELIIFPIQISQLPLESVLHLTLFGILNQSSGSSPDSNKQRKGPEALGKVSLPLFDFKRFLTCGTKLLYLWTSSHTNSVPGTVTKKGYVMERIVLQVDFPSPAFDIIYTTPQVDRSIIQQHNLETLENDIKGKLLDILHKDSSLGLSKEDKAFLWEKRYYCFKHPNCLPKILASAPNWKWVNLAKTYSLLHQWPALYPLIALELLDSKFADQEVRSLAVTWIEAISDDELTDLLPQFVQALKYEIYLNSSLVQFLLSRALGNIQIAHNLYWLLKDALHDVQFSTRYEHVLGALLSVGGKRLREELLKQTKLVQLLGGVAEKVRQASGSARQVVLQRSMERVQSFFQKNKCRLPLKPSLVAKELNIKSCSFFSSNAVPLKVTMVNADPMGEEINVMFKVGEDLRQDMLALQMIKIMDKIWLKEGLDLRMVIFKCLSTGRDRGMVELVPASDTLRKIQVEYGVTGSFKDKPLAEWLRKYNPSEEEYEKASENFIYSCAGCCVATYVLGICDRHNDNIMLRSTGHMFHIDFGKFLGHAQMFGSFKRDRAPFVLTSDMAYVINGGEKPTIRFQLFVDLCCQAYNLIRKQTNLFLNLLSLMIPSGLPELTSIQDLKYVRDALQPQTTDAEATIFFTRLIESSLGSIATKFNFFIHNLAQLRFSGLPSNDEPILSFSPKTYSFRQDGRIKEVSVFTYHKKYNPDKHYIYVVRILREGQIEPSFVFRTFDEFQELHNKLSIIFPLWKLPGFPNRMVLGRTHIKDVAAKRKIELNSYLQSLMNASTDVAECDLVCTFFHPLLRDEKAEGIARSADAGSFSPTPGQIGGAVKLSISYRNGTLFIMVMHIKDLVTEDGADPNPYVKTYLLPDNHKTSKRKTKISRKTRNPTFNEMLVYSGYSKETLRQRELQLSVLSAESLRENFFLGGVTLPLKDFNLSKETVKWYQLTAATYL
compound,measurement,setting,value
O=c1ccc2cnc3[nH]ccc3c2n1-c1ccc(F)c(O)c1 [STK16-IN-1],IC50,[1],4860 nM
same,IC50,[2],295 nM
same,IC50,[3],856 nM
same,IC50,[4],1070 nM
same,IC50,[5],> 10000 nM
same,IC50,[6],> 10000 nM
same,IC50,[7],867 nM
same,IC50,[8],7940 nM
same,IC50,[9],9330 nM
